Here are results for one molecule from PMC5218480 (PLoS ONE, 2017).

This assay relates to MV-4-11 cells. Nature of the assay: Gene expression microarray analysis (Affymetrix PrimeView) and GSEA. Format: cell-based, human. Details: RFU PODN (11730768_x_at) / Fold change /veh PODN (11730768_x_at) / RFU LINC00158 (11744669_a_at) / Fold change /veh LINC00158 (11744669_a_at) / RFU DUSP10 (11751237_a_at) / Fold change /veh DUSP10 (11751237_a_at) / RFU ID3 (11757404_x_at) / Fold change /veh ID3 (11757404_x_at) / RFU PLEKHG5 (11737974_s_at) / Fold change /veh PLEKHG5 (11737974_s_at) / RFU LRRC4B (11730491_at) / Fold change /veh LRRC4B (11730491_at) / RFU GIMAP4 (11747438_a_at) / Fold change /veh GIMAP4 (11747438_a_at) / RFU KRT8 (11758183_x_at) / Fold change /veh KRT8 (11758183_x_at) / RFU CNN1 (11734310_a_at) / Fold change /veh CNN1 (11734310_a_at) / RFU VPS37D (11726825_at) / Fold change /veh VPS37D (11726825_at) / RFU C10orf10 (11716522_x_at) / Fold change /veh C10orf10 (11716522_x_at) / RFU KIR2DL2 /// KIR2DL4 /// KIR2DL5A /// KIR2DL5B /// KIR2DS1 /// KIR2DS2 /// KIR2DS3 /// KIR2DS4 /// KIR3DL3 /// KIR3DL3 /// KIR3DS1 (11738374_at) / Fold change /veh KIR2DL2 /// KIR2DL4 /// KIR2DL5A /// KIR2DL5B /// KIR2DS1 /// KIR2DS2 /// KIR2DS3 /// KIR2DS4 /// KIR3DL3 /// KIR3DL3 /// KIR3DS1 (11738374_at) / RFU C1QL1 (11718748_at) / Fold change /veh C1QL1 (11718748_at) / RFU TMPRSS4 (11747572_a_at) / Fold change /veh TMPRSS4 (11747572_a_at) / RFU HAMP (11756126_x_at) / Fold change /veh HAMP (11756126_x_at) / RFU RNFT2 (11725882_a_at) / Fold change /veh RNFT2 (11725882_a_at) / RFU NR4A2 (11747474_a_at) / Fold change /veh NR4A2 (11747474_a_at) / RFU ABCC12 (11746883_a_at) / Fold change /veh ABCC12 (11746883_a_at) / RFU TMEM136 (11760407_x_at) / Fold change /veh TMEM136 (11760407_x_at) / RFU CLDN22 /// WWC2 (11732394_at) / Fold change /veh CLDN22 /// WWC2 (11732394_at) / RFU HLA-DPB1 (11760878_x_at) / Fold change /veh HLA-DPB1 (11760878_x_at) / RFU SPINT1 (11716480_a_at) / Fold change /veh SPINT1 (11716480_a_at) / RFU GAP43 (11754022_s_at) / Fold change /veh GAP43 (11754022_s_at) / RFU A4GNT (11735810_at) / Fold change /veh A4GNT (11735810_at) / RFU PRB3 (11715151_x_at) / Fold change /veh PRB3 (11715151_x_at) / RFU TUBB4B (11761932_at) / Fold change /veh TUBB4B (11761932_at) / RFU CAPN14 (11732068_a_at) / Fold change /veh CAPN14 (11732068_a_at) / RFU TMCC2 (11721928_a_at) / Fold change /veh TMCC2 (11721928_a_at) / RFU IRGQ (11745062_a_at) / Fold change /veh IRGQ (11745062_a_at) / RFU FAM174B (11720279_a_at) / Fold change /veh FAM174B (11720279_a_at) / RFU TMPRSS4 (11748680_a_at) / Fold change /veh TMPRSS4 (11748680_a_at) / RFU FAM212B (11763350_a_at) / Fold change /veh FAM212B (11763350_a_at) / RFU PLEKHG5 (11743358_a_at) / Fold change /veh PLEKHG5 (11743358_a_at) / RFU ZSCAN30 (11745921_a_at) / Fold change /veh ZSCAN30 (11745921_a_at) / RFU CMKLR1 (11741424_a_at) / Fold change /veh CMKLR1 (11741424_a_at) / RFU LOC101060620 /// MAPK8IP1 (11723275_at) / Fold change /veh LOC101060620 /// MAPK8IP1 (11723275_at) / RFU SPTSSB (11747773_x_at) / Fold change /veh SPTSSB (11747773_x_at) / RFU PRSS12 (11739890_at) / Fold change /veh PRSS12 (11739890_at) / RFU BIN1 (11741810_x_at) / Fold change /veh BIN1 (11741810_x_at) / RFU WNT11 (11732464_a_at) / Fold change /veh WNT11 (11732464_a_at) / RFU C10orf10 (11716521_a_at) / Fold change /veh C10orf10 (11716521_a_at) / RFU C5orf56 (11738089_at) / Fold change /veh C5orf56 (11738089_at) / RFU CYB561 (11721691_x_at) / Fold change /veh CYB561 (11721691_x_at) / RFU ANKRD19P (11752326_a_at) / Fold change /veh ANKRD19P (11752326_a_at) / RFU OR2T12 /// OR2T33 /// OR2T8 (11738714_s_at) / Fold change /veh OR2T12 /// OR2T33 /// OR2T8 (11738714_s_at) / RFU VCAN (11748164_a_at) / Fold change /veh VCAN (11748164_a_at) / RFU JSRP1 (11732532_at) / Fold change /veh JSRP1 (11732532_at) / RFU KRTAP10-11 (11738290_x_at) / Fold change /veh KRTAP10-11 (11738290_x_at) / RFU MYO3A (11730013_a_at) / Fold change /veh MYO3A (11730013_a_at) / RFU EBF3 (11725865_a_at) / Fold change /veh EBF3 (11725865_a_at) / RFU CAMK2N1 (11719241_x_at) / Fold change /veh CAMK2N1 (11719241_x_at) / RFU C5orf56 (11738088_a_at) / Fold change /veh C5orf56 (11738088_a_at) / RFU OLFML3 (11715873_a_at) / Fold change /veh OLFML3 (11715873_a_at) / RFU LOC100653217 /// NTM (11731650_a_at) / Fold change /veh LOC100653217 /// NTM (11731650_a_at) / RFU MAPK11 (11762145_a_at) / Fold change /veh MAPK11 (11762145_a_at) / RFU FIZ1 (11724087_x_at) / Fold change /veh FIZ1 (11724087_x_at) / RFU OASL (11726364_x_at) / Fold change /veh OASL (11726364_x_at) / RFU SOX15 (11748057_x_at) / Fold change /veh SOX15 (11748057_x_at) / RFU CD79A (11719716_a_at) / Fold change /veh CD79A (11719716_a_at) / RFU HIST1H1D (11736915_at) / Fold change /veh HIST1H1D (11736915_at) / RFU CASKIN2 (11723855_a_at) / Fold change /veh CASKIN2 (11723855_a_at) / RFU LOC730098 (11760151_x_at) / Fold change /veh LOC730098 (11760151_x_at) / RFU OR4N2 (11742367_at) / Fold change /veh OR4N2 (11742367_at) / RFU PRRT2 (11749266_a_at) / Fold change /veh PRRT2 (11749266_a_at) / RFU SNX32 (11753110_a_at) / Fold change /veh SNX32 (11753110_a_at) / RFU CDHR5 (11726645_a_at) / Fold change /veh CDHR5 (11726645_a_at) / RFU RCAN1 (11760418_a_at) / Fold change /veh RCAN1 (11760418_a_at) / RFU FAM167A (11723789_a_at) / Fold change /veh FAM167A (11723789_a_at) / RFU FAM26E (11764081_at) / Fold change /veh FAM26E (11764081_at) / RFU ISYNA1 (11749810_s_at) / Fold change /veh ISYNA1 (11749810_s_at) / RFU ACY1 (11761880_at) / Fold change /veh ACY1 (11761880_at) / RFU 11764098_at / Fold change /veh 11764098_at / RFU SAMD14 (11745864_x_at) / Fold change /veh SAMD14 (11745864_x_at) / RFU NPB (11741838_a_at) / Fold change /veh NPB (11741838_a_at) / RFU TMPRSS6 (11731388_a_at) / Fold change /veh TMPRSS6 (11731388_a_at) / RFU KRTAP10-2 (11738614_at) / Fold change /veh KRTAP10-2 (11738614_at) / RFU ARHGAP8 /// PRR5-ARHGAP8 (11727945_x_at) / Fold change /veh ARHGAP8 /// PRR5-ARHGAP8 (11727945_x_at) / RFU KRTAP5-7 /// NADSYN1 (11734609_at) / Fold change /veh KRTAP5-7 /// NADSYN1 (11734609_at) / RFU RASL12 (11751679_a_at) / Fold change /veh RASL12 (11751679_a_at) / RFU CDKN2B (11736163_a_at) / Fold change /veh CDKN2B (11736163_a_at) / RFU PRF1 (11729649_at) / Fold change /veh PRF1 (11729649_at) / RFU, ZNF638 /// ZNF638-IT1 / Fold change vs veh, ZNF638 /// ZNF638-IT1 / RFU, PANK3 / Fold change vs veh, PANK3 / RFU, SH3YL1 / Fold change vs veh, SH3YL1 / RFU, ZEB2 / Fold change vs veh, ZEB2 / RFU, NRIP1 / Fold change vs veh, NRIP1 / RFU, PTTG1IP / Fold change vs veh, PTTG1IP / RFU, CAPN2 / Fold change vs veh, CAPN2 / RFU, MED14 / Fold change vs veh, MED14 / RFU, SNORA58 / Fold change vs veh, SNORA58 / RFU, C1orf63 / Fold change vs veh, C1orf63 / RFU, LRRFIP1 / Fold change vs veh, LRRFIP1 / RFU, NDUFAF7 / Fold change vs veh, NDUFAF7 / RFU, SLC12A2 / Fold change vs veh, SLC12A2 / RFU, IBTK / Fold change vs veh, IBTK / RFU, ESF1 / Fold change vs veh, ESF1 / Fold change vs veh, TMEM50B / RFU, TAOK1 / Fold change vs veh, TAOK1 / RFU, ACBD3 / Fold change vs veh, ACBD3 / RFU, TMA16 / Fold change vs veh, TMA16 / RFU, RWDD3 / Fold change vs veh, RWDD3 / RFU, BCAT1 / Fold change vs veh, BCAT1 / RFU, EDEM3 / Fold change vs veh, EDEM3 / RFU, TMEM33 / Fold change vs veh, TMEM33 / RFU, WDR75 / Fold change vs veh, WDR75 / RFU, AHCTF1 / Fold change vs veh, AHCTF1 / RFU, TFRC / Fold change vs veh, TFRC / RFU, ZDHHC17 / Fold change vs veh, ZDHHC17 / RFU, NOM1 / Fold change vs veh, NOM1 / RFU, ARL8B / Fold change vs veh, ARL8B / RFU, ZBTB11 / Fold change vs veh, ZBTB11 / RFU, TAMM41 / Fold change vs veh, TAMM41 / RFU, KIAA1704 /// LOC100996395 / Fold change vs veh, KIAA1704 /// LOC100996395 / RFU, ING1 / Fold change vs veh, ING1 / RFU, TRMT61B / Fold change vs veh, TRMT61B / RFU, FUBP3 / Fold change vs veh, FUBP3 / RFU, TP53 / Fold change vs veh, TP53 / RFU, TNKS2 / Fold change vs veh, TNKS2 / RFU, ZFP14 / Fold change vs veh, ZFP14 / RFU, ACTR2 / Fold change vs veh, ACTR2 / RFU, PPP3R1 / Fold change vs veh, PPP3R1 / RFU, PIK3R1 / Fold change vs veh, PIK3R1 / RFU, HNRNPA1 / Fold change vs veh, HNRNPA1 / RFU, RNF170 / Fold change vs veh, RNF170 / RFU, ZNF28 / Fold change vs veh, ZNF28 / RFU, RNGTT / Fold change vs veh, RNGTT / RFU, OGT / Fold change vs veh, OGT / RFU, BRD1 / Fold change vs veh, BRD1 / RFU, MARS / Fold change vs veh, MARS / RFU, ZNF655 / Fold change vs veh, ZNF655 / RFU, FAHD1 / Fold change vs veh, FAHD1 / RFU, BDP1 / Fold change vs veh, BDP1 / RFU, LRRCC1 / Fold change vs veh, LRRCC1 / RFU, ARID1A / Fold change vs veh, ARID1A / RFU, ZNF146 / Fold change vs veh, ZNF146 / RFU, ZNF330 / Fold change vs veh, ZNF330 / RFU, GPN3 / Fold change vs veh, GPN3 / RFU, C9orf123 / Fold change vs veh, C9orf123 / RFU, N4BP2L2 / Fold change vs veh, N4BP2L2 / RFU, ARFIP1 / Fold change vs veh, ARFIP1 / RFU, FAM179B / Fold change vs veh, FAM179B / RFU, BCL10 / Fold change vs veh, BCL10 / RFU, UHRF1BP1L / Fold change vs veh, UHRF1BP1L / RFU, BET1 / Fold change vs veh, BET1 / RFU, CNOT2 / Fold change vs veh, CNOT2 / RFU, ZNF268 / Fold change vs veh, ZNF268 / Fold change vs veh, ZNF507 / RFU, DGCR2 / Fold change vs veh, DGCR2 / RFU, WDSUB1 / Fold change vs veh, WDSUB1 / Fold change vs veh, HSP90B1 /// MIR3652 / RFU, ADSS / Fold change vs veh, ADSS / RFU, GK / Fold change vs veh, GK / RFU, ZNF148 / Fold change vs veh, ZNF148 / RFU, TAF9 / Fold change vs veh, TAF9 / RFU, SLC1A5 / Fold change vs veh, SLC1A5 / RFU, SLMO2 / Fold change vs veh, SLMO2 / RFU, ABCC4 / Fold change vs veh, ABCC4 / RFU, LOC101060439 /// RAP1B / Fold change vs veh, LOC101060439 /// RAP1B / RFU, RFX7 / Fold change vs veh, RFX7 / RFU, GTPBP10 / Fold change vs veh, GTPBP10 / RFU, CNEP1R1 / Fold change vs veh, CNEP1R1 / RFU, BIVM-ERCC5 /// ERCC5 / Fold change vs veh, BIVM-ERCC5 /// ERCC5 / RFU, ILF3 / Fold change vs veh, ILF3 / RFU 11762660_at / Fold change /veh 11762660_at / RFU VCAN (11757783_s_at) / Fold change /veh VCAN (11757783_s_at) / RFU DDX43 (11728927_at) / Fold change /veh DDX43 (11728927_at) / RFU KRT8 (11758188_x_at) / Fold change /veh KRT8 (11758188_x_at) / RFU NKD1 (11759106_at) / Fold change /veh NKD1 (11759106_at) / RFU SRD5A1 (11742802_a_at) / Fold change /veh SRD5A1 (11742802_a_at) / RFU TPSAB1 /// TPSB2 (11721975_s_at) / Fold change /veh TPSAB1 /// TPSB2 (11721975_s_at) / RFU GSTM3 (11746129_a_at) / Fold change /veh GSTM3 (11746129_a_at) / RFU IL23R (11737362_x_at) / Fold change /veh IL23R (11737362_x_at) / RFU TMEM51 (11727254_a_at) / Fold change /veh TMEM51 (11727254_a_at) / RFU PIWIL2 (11732686_x_at) / Fold change /veh PIWIL2 (11732686_x_at) / RFU ORM1 (11744905_x_at) / Fold change /veh ORM1 (11744905_x_at) / RFU CCDC152 (11743942_at) / Fold change /veh CCDC152 (11743942_at) / RFU ECM1 (11717891_a_at) / Fold change /veh ECM1 (11717891_a_at) / RFU IL23R (11748794_a_at) / Fold change /veh IL23R (11748794_a_at) / RFU TNFAIP8L3 (11732012_x_at) / Fold change /veh TNFAIP8L3 (11732012_x_at) / RFU MBOAT4 (11741988_at) / Fold change /veh MBOAT4 (11741988_at) / RFU 11764193_at / Fold change /veh 11764193_at / RFU TMEM53 (11763286_at) / Fold change /veh TMEM53 (11763286_at) / RFU MAGEB2 (11727129_at) / Fold change /veh MAGEB2 (11727129_at) / RFU TMEM200A (11744735_a_at) / Fold change /veh TMEM200A (11744735_a_at) / RFU CCDC152 (11751479_a_at) / Fold change /veh CCDC152 (11751479_a_at) / RFU FAM211A (11726209_a_at) / Fold change /veh FAM211A (11726209_a_at) / RFU RGS16 (11746705_a_at) / Fold change /veh RGS16 (11746705_a_at) / RFU VCAN (11755009_s_at) / Fold change /veh VCAN (11755009_s_at) / RFU RHOB (11743442_s_at) / Fold change /veh RHOB (11743442_s_at) / RFU RGS16 (11720943_a_at) / Fold change /veh RGS16 (11720943_a_at) / RFU RGS16 (11720944_at) / Fold change /veh RGS16 (11720944_at) / RFU, VPS4B / Fold change vs veh, VPS4B / RFU, CREB1 / Fold change vs veh, CREB1 / RFU, DNAJC13 / Fold change vs veh, DNAJC13 / RFU, GNAQ / Fold change vs veh, GNAQ / RFU, CDK5R1 / Fold change vs veh, CDK5R1 / RFU, ZRANB3 / Fold change vs veh, ZRANB3 / RFU, CUL4A / Fold change vs veh, CUL4A / RFU, CCNY / Fold change vs veh, CCNY / RFU, UFL1 / Fold change vs veh, UFL1 / RFU, COG3 / Fold change vs veh, COG3 / RFU, DIAPH2 / Fold change vs veh, DIAPH2 / RFU, SKA2 / Fold change vs veh, SKA2 / RFU, AFF3 / Fold change vs veh, AFF3 / RFU, LMF1 / Fold change vs veh, LMF1 / RFU, IPO11 / Fold change vs veh, IPO11 / RFU, DFFB / Fold change vs veh, DFFB / RFU, FOXP1 / Fold change vs veh, FOXP1 / RFU, CARD8 / Fold change vs veh, CARD8 / RFU, STRN3 / Fold change vs veh, STRN3 / RFU, ADK / Fold change vs veh, ADK / RFU, RASSF2 / Fold change vs veh, RASSF2 / RFU, WIPF1 / Fold change vs veh, WIPF1 / RFU, LARP1B / Fold change vs veh, LARP1B / RFU, RASA1 / Fold change vs veh, RASA1 / RFU, RB1 / Fold change vs veh, RB1 / RFU, PPFIA1 / Fold change vs veh, PPFIA1 / RFU, MAT2A / Fold change vs veh, MAT2A / RFU, CCT5 / Fold change vs veh, CCT5 / RFU, WDR92 / Fold change vs veh, WDR92 / RFU, CUX1 / Fold change vs veh, CUX1 / RFU, TTC7A / Fold change vs veh, TTC7A / RFU, TMEM135 / Fold change vs veh, TMEM135 / RFU, DEPTOR / Fold change vs veh, DEPTOR / RFU, CPM / Fold change vs veh, CPM / RFU, DNAJB6 / Fold change vs veh, DNAJB6 / RFU, CACNA2D3 / Fold change vs veh, CACNA2D3 / RFU, DTX4 / Fold change vs veh, DTX4 / RFU, TFCP2 / Fold change vs veh, TFCP2 / RFU, GMCL1 /// GMCL1P1 / Fold change vs veh, GMCL1 /// GMCL1P1 / RFU, AEBP2 / Fold change vs veh, AEBP2 / RFU, SNHG1 /// SNORD22 /// SNORD25 /// SNORD26 /// SNORD27 /// SNORD28 /// SNORD29 /// SNORD31 / Fold change vs veh, SNHG1 /// SNORD22 /// SNORD25 /// SNORD26 /// SNORD27 /// SNORD28 /// SNORD29 /// SNORD31 / Fold change (Aza/veh), C12orf56 (ProbeSet 11735607_a_at) / Fold change (ACY-1035/veh), C12orf56 (ProbeSet 11735607_a_at) / Fold change (Aza/veh), FGFR1OP (ProbeSet 11751329_s_at) / Fold change (ACY-1035/veh), FGFR1OP (ProbeSet 11751329_s_at) / Fold change (Aza/veh), VPS36 (ProbeSet 11739960_a_at) / Fold change (ACY-1035/veh), VPS36 (ProbeSet 11739960_a_at) / RFU SYPL1 (11715823_x_at) / Fold change /veh SYPL1 (11715823_x_at) / RFU IGFBP7 (11715501_s_at) / Fold change /veh IGFBP7 (11715501_s_at) / RFU REEP3 (11722064_at) / Fold change /veh REEP3 (11722064_at) / RFU IGLL1 (11728026_x_at) / Fold change /veh IGLL1 (11728026_x_at): dose or concentration left out as unconfirmed. The settings on record: ProbeSet 11727545_at; LIST B.

On to `Nc1ccc(-c2cccs2)cc1NC(=O)c1ccc2c(c1)cc(C1CC1)n2CCN1CCOCC1` [ACY-1035], for which the “Fold change vs veh, PANK3” value was determined as 0.83.
